Test results as given in patent publication US8404650B2, “Methods of treating cancer with doxazolidine and prodrugs thereof” (priority 2005, dated 2013).
Where two headings read alike, the source gives them in different places.

How the values were obtained:
[1] = system: H9c2(2-1) rat cardiomyocytes; experiment: Growth inhibition of rat cardiomyocytes as a measure of cardiotoxicity; assay type: cell-based; settings: for Toxicity to cardiomyocytes compared with Doxorubicin: rat cardiomyocytes; for IC50: Rattus norvegicus
Procedure: Biological activity of simple Doxazolidine carbamates. Since the prodrug carbamates were designed to be activated by carboxylesterases CES1 (hCE1) and/or CES2 (hiCE), cell lines of interest were measured for expression of the respective mRNAs using reverse transcription (RT) followed by PCR (polymerase chain reaction). Cancer cell lines investigated included SHP-77 resistant small cell lung, DU-145 prostate, MCF-7 sensitive breast, MCF-7/Adr resistant breast, SK-HEP-1 liver, and Hep G2 liver cells. As a measure of possible cardiotoxicity, H9c2(2-1) rat cardiomyocytes were also investigated. Cardiotoxicity is relevant because the ultimate product of metabolism and subsequent hydrolysis of these carbamates is doxorubicin, which is cardiotoxic. […] Additionally, the rat cardiomyocytes, H9c2(2-1), also express more CES2 than CES1.
Cell growth inhibition experiments initially focused on MCF-7, MCF-7/Adr, SK-HEP-1, and Hep G2 cancer cells as well as rat cardiomyocytes as a measure of cardiotoxicity and Vero cells (green monkey kidney cells) as an additional measure of normal cell toxicity. The butyl and pentyl carbamates inhibited the growth of MCF-7, MCF-7/Adr, and SK-HEP-1 cell lines with a 24 h drug treatment period with some selectivity for cancer cells over cardiomyocytes relative to growth inhibition by Dox as shown in Table 2. […] The relative inactivity of the ethyl carbamate may indicate that a substantial lipophilic interaction is required at the active site of the carboxylesterases to hold the Doxaz substrate.
Biological activity of Doxazolidine carbamates with self-eliminating spacer. […] SHP-77 small cell lung cancer cells were also of interest because they express modest amounts of both enzymes. Inhibition of the growth of cardiomyocytes was used as a measure of cardiotoxicity, and inhibition of the growth of Vero cells, green monkey kidney cells, was again used as another measure of toxicity to normal cells. They also show more activity against the cancer cells that express higher levels of CES1. Of particular note is the higher activity against Hep G2 cells than against SK-HEP-1 cells. […] The low toxicity of pentyl PABC-Doxaz to cardiomyocytes relative to the toxicity of Dox is encouraging and consistent with the low level of expression of CES1 in cardiomyocytes.
A more thorough characterization of the growth inhibition of a variety of cancer cells as well as rat cardiomyocytes by Formula IV (aFK-PABC-Doxaz) was evaluated in comparison with inhibition of growth by Doxaz, Dox and aFK-PABC-Dox. Cells were treated with drug for 3 h and colony growth was measured at 3 to 5 days when cells reached about 80% confluence. The cancer cells included one prostate cancer cell line (DU-145), three related breast cancer cell lines (MCF-7, MCF-7/Adr, and MCF-7 uPA), and one pancreatic cancer cell line (Mia PaCa-2). The breast cancer cell lines represent the multi-drug resistant (MDR) phenotype with MCF-7/Adr cells and a cell line that is transfected with the gene for urokinase plasminogen activator (uPA), the primary enzyme responsible for cleavage of plasminogen to plasmin. Rat cardiomyocytes served as a model for comparison of drug cardiotoxicity. Growth inhibition was also measured with added plasmin. aFK-PABC-Doxaz inhibited the growth of most of the cancer cells 0.5 log or more better than did aFK-PABA-Dox. Although not as dramatic, this differential response paralleled the differential response between Doxaz and Dox which is approximately two logs except for the MDR expressing, MCF-7/Adr cells which show more than three logs differential response. […] Addition of 0.01 unit/mL of plasmin has no effect on the activity of Dox but increases the activity of both aFK-PABC-Doxaz and aFK-PABC-Dox, in some cases by more than a log. Addition of 0.01 unit/mL plasminogen increases the activity of aFK-PABC-Doxaz on average by 0.3 log. […]

SHP-77 = experiment: Growth inhibition of SHP-77 small cell lung cancer cells; assay type: cell-based; settings: 24 h drug treatment, crystal violet
Excerpt: SHP-77 small cell lung cancer cells were also of interest because they express modest amounts of both enzymes. Inhibition of the growth of cardiomyocytes was used as a measure of cardiotoxicity, and inhibition of the growth of Vero cells, green monkey kidney cells, was again used as another measure of toxicity to normal cells.

[2] = H9c2, 3 h, read-out: Growth inhibition IC50, H9c2(2-1), 3 h

For `COc1cccc2c1C(=O)c1c(O)c3c(c(O)c1C2=O)C[C@@](O)(C(=O)CO)C[C@@H]3OC1CC2C(OCN2CN2COC3C(C)OC(O[C@H]4C[C@](O)(C(=O)CO)Cc5c(O)c6c(c(O)c54)C(=O)c4c(OC)cccc4C6=O)CC32)C(C)O1` (stereo partly shown) [DoxF, Doxoform, reference compound], the “Toxicity to cardiomyocytes compared with Doxorubicin” value [1] was “no more toxic to cardiomyocytes than Doxorubicin”.
With `CCCCCOC(=O)Nc1ccc(COC(=O)N2COC3C(C)OC(OC4CC(O)(C(=O)CO)Cc5c(O)c6c(c(O)c54)C(=O)c4c(OC)cccc4C6=O)CC32)cc1` (stereo not shown) [Pentyl PABC-Doxaz, Pentyl 4-(N-doxazolidinylcarbonyloxymethyl)phenylcarbamate] the “Growth inhibition IC50, H9c2(2-1), 24 h” value ([1]; 24 h drug treatment, crystal violet) was −6.2 ± 0.2 log of the molar concentration and the “Cell growth inhibition IC50, SHP-77” value (SHP-77) was −7.3 ± 0.1 log of molar concentrations.
`COc1cccc2c1C(=O)c1c(O)c3c(c(O)c1C2=O)C[C@@](O)(C(=O)CO)C[C@@H]3O[C@H]1C[C@H]2[C@H](OCN2C(=O)OCc2ccc(NC(=O)[C@H](CCCCN)NC(=O)[C@H](Cc3ccccc3)NC(=O)[C@@H](C)N)cc2)[C@H](C)O1` [Formula IV, D-Ala-L-Phe-L-Lys-p-aminobenzyloxycarbonyl-Doxaz] was tested, and the IC50 ([1]; H9c2, read-out: IC50 Rat Cardio. + plasmin) was 40 nM.
With `COc1cccc2c1C(=O)c1c(O)c3c(c(O)c1C2=O)C[C@@](O)(C(=O)CO)C[C@@H]3O[C@H]1C[C@@H]2NCO[C@@H]2[C@H](C)O1` [Doxaz, Doxazolidine] the IC50 [1, 2] was 31.6 nM and the “Toxicity to cardiomyocytes compared with Doxorubicin” value [1] was “no more cardiotoxic than Doxorubicin”.
Work on `COc1cccc2c1C(=O)c1c(O)c3c(c(O)c1C2=O)C[C@@](O)(C(=O)CO)C[C@@H]3O[C@H]1C[C@H](N)[C@H](O)[C@H](C)O1` [Doxorubicin, reference compound] yielded an IC50 [1, 2] of 31.6 nM, an IC50 ([1]; H9c2, 24 h, read-out: Growth inhibition IC50, H9c2(2-1), 24 h) of 20 nM and an IC50 ([1]; H9c2, read-out: IC50 Rat Cardio., top line of the cell) of 20 nM. For the same compound, the IC50 (SHP-77; Homo sapiens, SHP77) was 126 nM.
